According to PMC11462627, “SAL0114: a novel deuterated dextromethorphan-bupropion combination with improved antidepressant efficacy and safety profile” (Frontiers in Pharmacology, 2024):

Columns and labels:
[1] = Metabolic stability in liver microsomes; type: in vitro ADME, human
Experimental: All incubations were performed in duplicates. Verapamil was used as the positive control. After pre-warming the mixture for 5 min, reactions were initiated by the addition of NADPH (1 mM). Samples (30 μL) were taken at 0, 20, and 60 min, and the reaction was immediately terminated by adding 150 μL acetonitrile containing an analytical internal standard (IS). Samples were centrifuged at 4,000 rpm for 5 min in a centrifuge (5810R, Eppendorf, Germany), and the supernatant was analyzed by LC-MS/MS (Thermo Scientific TSQ Quantum Ultra, United States).
The in vivo clearance values (CLint = CLint, in vitro × (mg protein/g liver weight) × (g liver weight/kg body weight)) of humans were predicted by CLint, in vitro values using physiologically-based scaling factors, hepatic microsomal protein concentrations (48.8 mg protein/g liver), and liver weights (25.7 g/kg body weight). The in vivo hepatic clearance (CLH= (Q × CLint)/(Q + CLint)) was then calculated by using CLint and hepatic blood flow, Q (20.7 mL·min^−1·kg^−1 in humans).

NMDA receptor = details: read-out: Ki, NMDA receptor; 3H-MK801 competition, rat brain membranes, mean, n = 4
Experimental: Membrane preparation was performed as previously described ([Werling et al., 2007]). Briefly, the brains of male Sprague-Dawley rats were dissected for tissue collection. The tissue was then homogenized in ice-cold extraction solution and centrifuged at 40,000 × g for 10 min (minute). The supernatant was discarded, the precipitate was resuspended in extraction solution, and the above steps were repeated two times. Finally, the precipitate was resuspended in a 10-fold volume of resuspension solution and stored at −80°C. Protein concentration was determined using a PierceTM BCA Protein Assay Kit. The competitive binding of the compound and ^3H-MK801 to the NMDA receptor was evaluated utilizing the filtration binding method. This method involves washing unbound radioligands and subsequently quantifying the signal values of the radioligands bound to the NMDA receptor using a Microbeta instrument (catalog number: 2450, Perkin Elmer, Massachusetts, United States).

[2] = target: T1, norepinephrine transporter (Homo sapiens, UniProt P23975); assay: Norepinephrine transporter (NET) radioligand binding (3H-Nisoxetine); details: 3H-Nisoxetine competition, mean, n = 2; read-out: Ki, norepinephrine transporter
T1 construct: purchased PerkinElmer, Inc RBHNETM400UA
Experimental: The experiments were carried out in the Pharmaron laboratory, and the methods were referenced from previous studies with modifications ([Bylund and Toews, 1993]; [Galli et al., 1995]). Competitive binding of the compound and ^3H-Nisoxetine to NETs was assessed using a radioligand binding method. The ability of the compound to competitively bind to NET (Ki) was determined by detecting the signal value of the radioligand bound to the transporter using a Microbeta instrument (2450, Perkin Elmer, Massachusetts, United States).

nAchR α3β4 = target: T2, nAchR α3β4 (Homo sapiens, UniProt P30926+P32297); assay: nAchR α3β4 radioligand binding (125I-epibatidine, recombinant CHO-K1 cells); details: 125I-epibatidine competition, human recombinant CHO-K1 cells, mean, n = 2; read-out: Ki, α3β4 nicotinic acetylcholine receptors
T2 construct: host or cells: CHO-K1
Experimental: The experiments were carried out in the Eurofins Discovery laboratory, and the methods were referenced from previous studies with modifications ([Michelmore et al., 2002]; [Zaveri et al., 2010]). The competitive binding of the samples and ^125I-epibatidine to the nAchR α3β4 in human recombinant CHO-K1 cells was assessed using a radioligand binding method. The ability of the compound to competitively bind to nAchR α3β4 (Ki) was determined by detecting the signal value of the radioligand bound to the receptor.

Sprague-Dawley rats = assay: Reserpine-induced hypothermia in rats; type: in vivo; details: oral, 30 min after treatment
Experimental: A reserpine-induced hypothermia test was performed according to the method described by Rojas-Corrales et al. ([Rojas-Corrales et al., 2004]; [Dhamija et al., 2017]), with some modifications. 80 male Sprague-Dawley rats were administered an intraperitoneal injection of reserpine (4 mg/kg). 18 h after the injection, rectal temperatures were measured using a rectal probe connected to a thermometer (MC-347, Omron Healthcare, Dalian, China). Rats with body temperatures not exceeding 34.5°C were considered successfully modeled. […] An additional group of ten rats not treated with reserpine served as the normal control. After the group assignment, the second phase of compound administration was initiated. The normal and model control groups received oral saline (10 mL/kg), whereas the other groups received their respective compounds orally at the specified doses, all in an equivalent volume (10 mL/kg). Rectal temperatures were measured 30 min after treatment to assess the effect of compounds in each group on the reserpine-induced hypothermia model. All experimental procedures were conducted in strict accordance with guidelines approved by the Institutional Animal Care and Use Committee of Shenzhen Salubris Pharmaceuticals Co., Ltd. A P value of less than 0.05 was considered statistically significant for comparisons between groups.

ICR mice = assay: Tail suspension test; type: in vivo; details: TST, oral, 1 h after administration, deDM 10 and 18 mg/kg, BUP 50 mg/kg, deDM + BUP 10 + 50 and 18 + 50 mg/kg
Experimental: The TST was adapted from the behavioral despair test described by Nguyen et al. ([Nguyen et al., 2017]), with some modifications. […] All compounds were administered orally via gavage at a volume of 10 mL/kg body weight, with the vehicle group receiving an equivalent volume of saline. One hour after administration, mice underwent a tail suspension test (TST). For the TST, each mouse was suspended by its tail, with adhesive tape attached 2 cm from the tail tip and secured to a metal rod. Care was taken to ensure a minimum distance of 15 cm between the suspended animal and the surrounding objects. The test was performed using the ANY-maze version 4.63 video tracking program (Stoelting Co., Wood Dale, IL, United States) for a total duration of 6 min. The initial 2 min served as an acclimatization period and were not scored. The immobility time during the subsequent 4 min was measured using the same software. Immobility was defined as mouse hanging passively and motionless. The ANY-Maze software parameters were set as follows: acclimatization period = 120 s, test duration = 240 s, minimum immobility time = 2 s, and immobility sensitivity = 75%. […]

T2 sequence (P32297 32-505): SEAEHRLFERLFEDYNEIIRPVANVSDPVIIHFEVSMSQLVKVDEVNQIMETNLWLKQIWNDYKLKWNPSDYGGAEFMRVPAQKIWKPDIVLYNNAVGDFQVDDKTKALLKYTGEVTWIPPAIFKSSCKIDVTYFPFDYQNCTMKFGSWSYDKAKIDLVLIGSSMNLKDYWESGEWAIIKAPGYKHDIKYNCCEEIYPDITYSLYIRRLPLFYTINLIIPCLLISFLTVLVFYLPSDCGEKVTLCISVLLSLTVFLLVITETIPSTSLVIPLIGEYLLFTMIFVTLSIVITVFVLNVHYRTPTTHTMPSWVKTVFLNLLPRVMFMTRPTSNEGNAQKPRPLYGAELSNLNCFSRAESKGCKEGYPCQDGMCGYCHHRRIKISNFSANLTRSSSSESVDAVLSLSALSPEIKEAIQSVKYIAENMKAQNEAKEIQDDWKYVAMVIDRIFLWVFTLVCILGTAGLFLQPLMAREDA
T2 sequence (P30926 22-498): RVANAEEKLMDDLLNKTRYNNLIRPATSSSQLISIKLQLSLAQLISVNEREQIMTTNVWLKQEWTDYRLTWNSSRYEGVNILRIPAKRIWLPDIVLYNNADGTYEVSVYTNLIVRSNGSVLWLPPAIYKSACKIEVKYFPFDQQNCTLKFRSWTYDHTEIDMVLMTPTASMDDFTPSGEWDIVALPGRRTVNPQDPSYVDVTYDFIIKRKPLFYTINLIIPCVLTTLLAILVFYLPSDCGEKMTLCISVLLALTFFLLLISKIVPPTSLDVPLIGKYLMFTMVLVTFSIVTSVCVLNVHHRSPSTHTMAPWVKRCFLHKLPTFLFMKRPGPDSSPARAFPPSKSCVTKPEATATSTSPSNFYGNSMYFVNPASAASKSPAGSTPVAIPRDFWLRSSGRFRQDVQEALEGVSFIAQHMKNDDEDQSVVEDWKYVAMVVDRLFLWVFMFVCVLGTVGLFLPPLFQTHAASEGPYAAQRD
T1 sequence (P23975 whole entry): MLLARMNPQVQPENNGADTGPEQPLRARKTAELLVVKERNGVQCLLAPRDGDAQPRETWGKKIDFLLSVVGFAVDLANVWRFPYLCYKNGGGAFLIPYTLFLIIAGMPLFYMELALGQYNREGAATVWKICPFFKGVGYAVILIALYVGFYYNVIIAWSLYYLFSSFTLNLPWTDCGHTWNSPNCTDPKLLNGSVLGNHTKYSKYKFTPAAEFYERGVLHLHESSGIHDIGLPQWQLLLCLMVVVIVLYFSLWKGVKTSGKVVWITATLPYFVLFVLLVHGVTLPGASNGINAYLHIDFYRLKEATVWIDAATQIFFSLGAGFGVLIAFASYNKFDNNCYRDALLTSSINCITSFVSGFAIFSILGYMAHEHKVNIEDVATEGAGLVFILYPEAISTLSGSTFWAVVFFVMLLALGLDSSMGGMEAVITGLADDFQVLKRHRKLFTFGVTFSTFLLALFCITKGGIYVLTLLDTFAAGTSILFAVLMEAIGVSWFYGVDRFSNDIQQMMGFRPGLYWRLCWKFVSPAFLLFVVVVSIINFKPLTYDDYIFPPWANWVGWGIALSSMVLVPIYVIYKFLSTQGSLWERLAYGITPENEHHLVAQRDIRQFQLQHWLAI

With deuterated dextromethorphan [deDM] the T1/2 ([1]; 1 μM, 0.5 mg/mL human liver microsomes, NADPH 1 mM, 37°C, mean, n = 2) was 2.265 h, the “CLint, in vitro” value ([1]; human liver microsomes, calculated from t1/2, mean, n = 2) was 12.8 mL/min/kg and the CLH ([1]; in vivo hepatic clearance predicted from CLint and hepatic blood flow 20.7 mL/min/kg, human) was 7.9 mL/min/kg. It also gave a Ki (NMDA receptor) of 1.9 µM, a Ki [2] of 17.1 µM and a Ki (nAchR α3β4) of 15.8 µM. For the same substance, the “body temperature compared with the model (vehicle) group” value (Sprague-Dawley rats; reserpine 4 mg/kg i.p. rats, BUP 40 mg/kg, deDM 5 and 10 mg/kg, deDM + BUP 5 + 40 and 10 + 40 mg/kg) was “increased the body temperature of model animals in a dose-dependent manner”, the “body temperature, high dose compared with the model (vehicle) group” value (Sprague-Dawley rats; reserpine rats, 10 mg/kg) was “reaching a statistically significant difference” and the “immobilization time compared to the vehicle group” value (ICR mice) was “did not significantly reduce the immobilization time”.
